# Measured values reported in PMC11966747, “Next Generation Risk Assessment of Acute Neurotoxicity from Organophosphate Exposures Using the In Vitro–In Silico Derived Dietary Comparator Ratio” (Environmental Science & Technology, 2025).
# Read-outs that look alike come from different tables or passages of the source.
# Legend:
# [1] = target: T1, erythrocyte AChE (Homo sapiens, UniProt P22303); experiment: Exposure Activity Ratio (EAR) and Dietary Comparator Ratio (DCR) calculation; design: from tissue; host or cells: human whole peripheral blood (erythrocytes), K2EDTA anticoagulant; settings: human
# T1 sequence (P22303 32-617 isoform P22303-2 limits assumed): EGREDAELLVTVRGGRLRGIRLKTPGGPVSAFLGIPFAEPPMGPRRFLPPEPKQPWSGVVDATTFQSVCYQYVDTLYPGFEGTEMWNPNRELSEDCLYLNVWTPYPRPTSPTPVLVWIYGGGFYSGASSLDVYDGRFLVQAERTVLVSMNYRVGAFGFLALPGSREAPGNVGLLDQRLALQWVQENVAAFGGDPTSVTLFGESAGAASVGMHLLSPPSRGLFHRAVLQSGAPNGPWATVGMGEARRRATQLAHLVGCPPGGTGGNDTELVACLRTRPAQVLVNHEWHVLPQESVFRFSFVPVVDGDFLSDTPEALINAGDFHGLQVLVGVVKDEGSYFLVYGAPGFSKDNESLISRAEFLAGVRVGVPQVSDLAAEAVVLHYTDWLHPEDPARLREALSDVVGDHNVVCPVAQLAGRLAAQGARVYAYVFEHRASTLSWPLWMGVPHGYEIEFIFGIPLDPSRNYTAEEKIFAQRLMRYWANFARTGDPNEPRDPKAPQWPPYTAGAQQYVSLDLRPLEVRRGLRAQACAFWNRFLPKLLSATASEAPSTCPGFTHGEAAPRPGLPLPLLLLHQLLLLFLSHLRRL
# Experimental: The DCR value for an exposure scenario was calculated as the ratio of EARtest and EARcomparator (eq 1). The EARtest is scenario-specific and was defined with the IC50 of the tested organophosphate oxon for in vitro erythrocyte AChE inhibition and the PBK model-simulated CBmaxoxon at the defined exposure level (eq 2).
# The DCR-based predictions were evaluated by comparing the obtained DCR results with actual knowledge of the adverse health effects reported for the respective exposure scenarios. Adverse effects cannot be ruled out for human exposure scenarios with a DCR result greater than 1, while exposure scenarios with a DCR result less than or equal to 1 are considered to raise no safety concern.[18]−[20] Once validated as an adequate predicting tool, the DCR approach was applied for evaluating the safety of exposure scenarios, for which no information on the resulting toxic outcomes was reported at the defined dose levels for humans.
# [2] = QSAR-based prediction; ref Punt et al. 2022; Moerenhout et al. 2024; cited from earlier work
# [3] = target: T1, erythrocyte AChE; settings: cited from earlier work; for reported or expected adverse health outcome: human, ref Table S2
# [4] = 214 mg/kg BW (15 g) acute oral, person, ref Klemmer et al. 1978
# [5] = 357 mg/kg BW (25 g) acute oral, person seven, ref Klemmer et al. 1978
# [6] = 357 mg/kg BW (25 g) acute oral, person six, ref Klemmer et al. 1978
# [7] = 643 mg/kg BW (45 g) acute oral, person, ref Klemmer et al. 1978
smiles,measurement,setting,value
CCOP(=S)(OCC)Oc1cc(C)nc(C(C)C)n1 [diazinon],calculated DCR value,[1]; single oral 0.011 mg/kg BW,2.1 × 10^–4
same,calculated EARtest value,[1]; single oral 0.011 mg/kg BW,8.3 × 10^–6
same,calculated DCR value,[1]; single oral 0.03 mg/kg BW,5.7 × 10^–4
same,calculated EARtest value,[1]; single oral 0.03 mg/kg BW,2.3 × 10^–5
same,calculated DCR value,[1]; single oral 0.12 mg/kg BW,2.3 × 10^–3
same,calculated EARtest value,[1]; single oral 0.12 mg/kg BW,9.1 × 10^–5
same,calculated DCR value,[1]; single oral 0.20 mg/kg BW,3.8 × 10^–3
same,calculated EARtest value,[1]; single oral 0.20 mg/kg BW,1.5 × 10^–4
same,calculated EARtest value,[1]; single oral 0.21 mg/kg BW,1.6 × 10^–4
same,calculated EARtest value,[1]; single oral 0.30 mg/kg BW,2.3 × 10^–4
same,calculated DCR value,[1]; single oral 200 mg/kg BW,2.1
same,calculated EARtest value,[1]; single oral 200 mg/kg BW,0.084
same,calculated DCR value,[1]; single oral 214 mg/kg BW,2.2
same,calculated EARtest value,[1]; single oral 214 mg/kg BW,0.085
same,calculated DCR value,[1]; single oral 293 mg/kg BW,2.3
same,calculated EARtest value,[1]; single oral 293 mg/kg BW,0.089
same,calculated DCR value,[1]; single oral 323 mg/kg BW,2.3
same,calculated EARtest value,[1]; single oral 323 mg/kg BW,0.090
same,calculated DCR value,[1]; single oral 357 mg/kg BW,2.3
same,calculated EARtest value,[1]; single oral 357 mg/kg BW,0.091
same,calculated DCR value,[1]; single oral 429 mg/kg BW,2.3
same,calculated EARtest value,[1]; single oral 429 mg/kg BW,0.093
same,calculated DCR value,[1]; single oral 643 mg/kg BW,2.4
same,calculated EARtest value,[1]; single oral 643 mg/kg BW,0.095
same,Oral absorption rate constant,[2],0.73 h⁻¹
same,Reported erythrocyte AChE activity/inhibition,"[3]; 0.011 mg/kg BW single oral, 4 male and 1 female volunteers, ref Garfitt et al. 2002",No erythrocyte AChE inhibition
same,Reported erythrocyte AChE activity/inhibition,"[3]; 0.03 mg/kg BW single oral, 7 male volunteers, ref APVMA. 2011, US EPA. 2001 (original data of Boyeson. 2000)",No erythrocyte AChE inhibition
same,Reported erythrocyte AChE activity/inhibition,"[3]; 0.12 mg/kg BW single oral, 7 male volunteers, ref APVMA. 2011, US EPA. 2001 (original data of Boyeson. 2000)",No erythrocyte AChE inhibition
same,Reported erythrocyte AChE activity/inhibition,"[3]; 0.20 mg/kg BW single oral, 7 male volunteers, ref APVMA. 2011, US EPA. 2001 (original data of Boyeson. 2000)",No erythrocyte AChE inhibition
same,Reported erythrocyte AChE activity/inhibition,"[3]; 0.21 mg/kg BW single oral, 7 male volunteers, APVMA: significant inhibition, US EPA: limited, ref APVMA. 2011, US EPA. 2001 (original data of Boyeson. 2000)",Conflicting opinions
same,Reported concomitant effects (signs and symptoms),"[3]; 0.21 mg/kg BW single oral, 7 male volunteers, might occur, ref APVMA. 2011, US EPA. 2001 (original data of Boyeson. 2000)",Mild clinical signs or symptoms
same,Reported erythrocyte AChE activity/inhibition,"[3]; 0.30 mg/kg BW single oral, 1 volunteer, APVMA: inhibition greater than at 0.20 mg/kg BW, US EPA: no inhibition, ref APVMA. 2011, US EPA. 2001 (original data of Boyeson. 2000)",Conflicting opinions
same,Reported concomitant effects (signs and symptoms),"[3]; 0.30 mg/kg BW single oral, 1 volunteer, might occur, ref APVMA. 2011, US EPA. 2001 (original data of Boyeson. 2000)",Mild clinical signs or symptoms
same,Reported concomitant effects (signs and symptoms),"[3]; 200 mg/kg BW (14 - 57 g) acute oral, 14 males and 11 females, ref APVMA. 2011 (original data of Mutalik et al. 1962)",Toxic symptoms occurred
same,Reported concomitant effects (signs and symptoms),[3]; [4],toxic symptoms occurred
same,Reported erythrocyte AChE activity/inhibition,[3]; [4],Significantly decreased
same,Reported concomitant effects (signs and symptoms),"[3]; 293 mg/kg BW (22 g) acute oral, person, ref Poklis et al. 1980",Died
same,Reported concomitant effects (signs and symptoms),"[3]; 323 mg/kg BW (22.6 g) acute oral, person, ref APVMA. 2011 (original data of Banerjee. 1967)",Toxic symptoms occurred
same,Reported concomitant effects (signs and symptoms),[3]; [5],toxic symptoms occurred
same,Reported erythrocyte AChE activity/inhibition,[3]; [5],Significantly decreased
same,Reported concomitant effects (signs and symptoms),[3]; [6],toxic symptoms occurred
same,Reported erythrocyte AChE activity/inhibition,[3]; [6],Significantly decreased
same,Reported concomitant effects (signs and symptoms),"[3]; 429 mg/kg BW (30 g) acute oral, person, ref Martinez-Chuecos et al. 1992",Toxic symptoms occurred
same,Reported concomitant effects (signs and symptoms),[3]; [7],toxic symptoms occurred
same,Reported erythrocyte AChE activity/inhibition,[3]; [7],Significantly decreased
same,reported or expected adverse health outcome,"[3]; single oral 0.011 mg/kg BW, 0.011 mg/kg",negative
same,reported or expected adverse health outcome,"[3]; single oral 0.011 mg/kg BW, listed as Diazinon, 0.011 mg/kg",No
same,reported or expected adverse health outcome,"[3]; single oral 0.03 mg/kg BW, 0.03 mg/kg",negative
same,reported or expected adverse health outcome,"[3]; single oral 0.03 mg/kg BW, listed as Diazinon, 0.03 mg/kg",No
same,reported or expected adverse health outcome,"[3]; single oral 0.12 mg/kg BW, 0.12 mg/kg",negative
same,reported or expected adverse health outcome,"[3]; single oral 0.12 mg/kg BW, listed as Diazinon, 0.12 mg/kg",No
same,reported or expected adverse health outcome,"[3]; single oral 0.20 mg/kg BW, 0.2 mg/kg",negative
same,reported or expected adverse health outcome,"[3]; single oral 0.20 mg/kg BW, listed as Diazinon, 0.2 mg/kg",No
same,reported or expected adverse health outcome,"[3]; single oral 200 mg/kg BW, 200 mg/kg",positive
same,reported or expected adverse health outcome,"[3]; single oral 200 mg/kg BW, listed as Diazinon, 200 mg/kg",Yes
same,reported or expected adverse health outcome,"[3]; single oral 214 mg/kg BW, 214 mg/kg",positive
same,reported or expected adverse health outcome,"[3]; single oral 214 mg/kg BW, listed as Diazinon, 214 mg/kg",Yes
same,reported or expected adverse health outcome,"[3]; single oral 293 mg/kg BW, 293 mg/kg",positive
same,reported or expected adverse health outcome,"[3]; single oral 293 mg/kg BW, listed as Diazinon, 293 mg/kg",Yes
same,reported or expected adverse health outcome,"[3]; single oral 323 mg/kg BW, 323 mg/kg",positive
same,reported or expected adverse health outcome,"[3]; single oral 323 mg/kg BW, listed as Diazinon, 323 mg/kg",Yes
same,reported or expected adverse health outcome,"[3]; single oral 357 mg/kg BW, 357 mg/kg",positive
same,reported or expected adverse health outcome,"[3]; single oral 357 mg/kg BW, listed as Diazinon, 357 mg/kg",Yes
same,reported or expected adverse health outcome,"[3]; single oral 429 mg/kg BW, 429 mg/kg",positive
same,reported or expected adverse health outcome,"[3]; single oral 429 mg/kg BW, listed as Diazinon, 429 mg/kg",Yes
same,reported or expected adverse health outcome,"[3]; single oral 643 mg/kg BW, 643 mg/kg",positive
same,reported or expected adverse health outcome,"[3]; single oral 643 mg/kg BW, listed as Diazinon, 643 mg/kg",Yes
